ChEMBL document CHEMBL3886421, “6-thio-substituted imidazo[1,2-a]pyrazines as Mps-1 inhibitors” (2015)

Biological target: T1, Dual specificity protein kinase TTK (Homo sapiens, UniProt P33981)
T1 sequence (P33981 whole entry): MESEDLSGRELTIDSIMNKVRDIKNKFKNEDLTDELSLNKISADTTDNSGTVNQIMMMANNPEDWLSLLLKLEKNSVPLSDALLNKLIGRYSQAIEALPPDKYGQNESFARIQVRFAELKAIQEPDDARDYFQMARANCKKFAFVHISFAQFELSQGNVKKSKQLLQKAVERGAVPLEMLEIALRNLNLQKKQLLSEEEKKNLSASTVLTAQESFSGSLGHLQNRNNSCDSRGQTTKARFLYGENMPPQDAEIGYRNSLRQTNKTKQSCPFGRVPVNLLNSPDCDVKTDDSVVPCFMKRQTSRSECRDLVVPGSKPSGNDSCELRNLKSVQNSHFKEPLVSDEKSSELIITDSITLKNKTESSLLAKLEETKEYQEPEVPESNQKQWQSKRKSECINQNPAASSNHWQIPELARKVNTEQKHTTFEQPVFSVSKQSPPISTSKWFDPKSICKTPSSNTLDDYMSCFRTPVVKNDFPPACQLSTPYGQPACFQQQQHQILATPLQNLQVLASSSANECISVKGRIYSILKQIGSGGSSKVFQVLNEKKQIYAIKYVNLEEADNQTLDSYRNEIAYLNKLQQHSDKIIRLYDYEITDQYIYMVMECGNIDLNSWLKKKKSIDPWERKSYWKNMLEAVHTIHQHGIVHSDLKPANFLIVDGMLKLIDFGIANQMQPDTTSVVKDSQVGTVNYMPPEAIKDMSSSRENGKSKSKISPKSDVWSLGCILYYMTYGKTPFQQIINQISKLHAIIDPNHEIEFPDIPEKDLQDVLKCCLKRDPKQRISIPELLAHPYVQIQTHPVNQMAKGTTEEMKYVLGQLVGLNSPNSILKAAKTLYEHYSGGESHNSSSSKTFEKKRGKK
Experiment: Kinase Assay: For the assay 50 nL of a 100-fold concentrated solution of the test compound in DMSO was pipetted into a black low volume 384 well microtiter plate (Greiner Bio-One, Frickenhausen, Germany), 2 ul of a solution of Mps-1 in assay buffer [0.1 mM sodium-ortho-vanadate, 10 mM MgCl2, 2 mM DTT, 25 mM Hepes pH 7.7, 0.05% BSA, 0.001% Pluronic F-127] were added and the mixture was incubated for 15 min at 22° C. to allow pre-binding of the test compounds to Mps-1 before the start of the kinase reaction. Then the kinase reaction was started by the addition of 3 ul of a solution of 16.7 adenosine-tri-phosphate (ATP, 16.7 uM=>final conc. in the 5 ul assay volume is 10 uM) and peptide substrate (1.67 uM=>final conc. in the 5 ul assay volume is 1 uM) in assay buffer and the resulting mixture was incubated for a reaction time of 60 min at 22° C. The concentration of Mps-1 in the assay was adjusted to the activity of the enzyme lot.

IC50: 52.1 nM
SMILES: CCCSc1cn2c(-c3ccc(C(=O)NC4CC4)c(C)c3)cnc2c(NCC(C)(C)O)n1
